Several values for one entry are separate records, joined by “and”; a condition that tells them apart may be missing. Identical values can stand only once.
Assay: Lapatinib pharmacokinetics and uptake in rat brain tissue (BT);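 for BT corr (BT homogenate corrected), single rat: brain concentration corrected for residual brain blood by the Fridén method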;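 for BT corr (BT homogenate), single rat: brain concentration corrected for residual brain blood by the Fridén method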
Format: in vivo, rats
Conditions: for BT corr (BT homogenate), S / BT corr (BT homogenate), single rat: lapatinib 100 mg/kg + elacridar; for BT corr (BT homogenate corrected), single rat: lapatinib p.o. 100 mg/kg alone, 100 mg/kg
Experimental: This study was conducted on rats, which are a promising model to predict P-gp-based drug-drug interactions at the human BBB [15]. The animals were allowed to acclimate for one week before the beginning of the experiments. Adult male Wistar-strain rats (weight 470–525 g) were used in the study. The animals were maintained under standard breeding conditions with a 12/12 h light-dark cycle (lights on at 6.00 a.m., lights off at 6.00 p.m.) at constant room temperature (23 ± 2 °C), relative humidity (55 ± 10%) and ad libitum access to food and water. The experimental protocol for this study was reviewed and approved by the Local Ethics Committee. To obtain consistent data, the study was based on the required minimum number of animals and observation time. […] Three rats were used at each time point (n = 3). In total, the research was conducted on 66 animals (n = 33 in the experimental group and n = 33 in the control group).
Elacridar was freshly dissolved in a vehicle at an initial concentration of 20 mg/mL. […] A volume of 80 μL of blood was collected from each rat by cutting off a piece of its tail. The blood samples were collected into heparinized test tubes at the following time points: […], and they were immediately centrifuged at 2880 g for 10 min at 4 °C. The anaesthetized rats (anaesthetized by intramuscular administration of 50 mg/kg ketamine and 10 mg/kg xylazine) were prepared for cisterna magna puncture. The hair over the puncture was removed and the skin was disinfected with alcohol. The animals were placed in a recumbent position with an elevated rear part of the body. The animals’ heads were slightly flexed and immobilized with the operator’s left hand. The space between the occiput rostrally and the atlas (C1) of the spinal column caudally was gently palpated with the left thumb. A 0.7 × 20 G needle with polyethylene tubing (Terumo Poland, Warsaw, Poland) was gently inserted at an approximate angle of 80–90° through the skin with the operator’s right hand into the midsagittal region. The moment that dura mater perforation was perceptible, a small amount of CSF was found in the needle tubing. To sample additional CSF, a 1 mL insulin syringe (Becton Dickinson, Warsaw, Poland) was used to collect 80–120 μL of CSF by very gentle aspiration. Only clear CSF was collected for further analysis. […] The animals’ brains were immediately dissected, washed in 0.9% NaCl and divided along the longitudinal axis. One of the brain hemispheres was again rinsed three times with 5 mL of 0.9% NaCl, weighed and homogenized with 0.9% NaCl (4 mL per 1 g of BT) in an Ultra-Turrax homogenizer (Witko, Łódź, Poland). The homogenate was then centrifuged at 4500 g for 10 min. All samples of the rat BP, CSF, and BT homogenate supernatant were stored at −80 °C until analysis.
The chromatographic analysis was conducted using a 1260 Infinity system (Agilent Technologies, Santa Clara, USA) equipped with a Kinetex® C18 column (50 × 4.6 mm, 2.6 μm, Phenomenex, Torrance, USA), which was maintained at 35 °C. The mobile phase consisted of 0.1% formic acid (v/v) in water with 5 mM ammonium formate (solvent A) and acetonitrile with 10% phase A (v/v, solvent B). The analyte and internal standard (IS, erlotinib) were eluted using a gradient run of 10 min as follows: 95% A at 0–2 min; 95%–5% A at 2–4 min; 5% A at 4–5 min; 5%–95% A at 5–6 min; 95% A at 6–10 min. The flow rate and injection volume were set at 0.7 mL/min and 10 μL, respectively. The needle was washed for 30 s in a mixture of acetonitrile, methanol, isopropanol, water, and formic acid (50:20:15:15:0.25, v/v/v/v/v).

SMILES: CS(=O)(=O)CCNCc1ccc(-c2ccc3ncnc(Nc4ccc(OCc5cccc(F)c5)c(Cl)c4)c3c2)o1 [lapatinib, N-{3-Chloro-4-[(3-fluorobenzyl)oxy]phenyl}-6-[5-({[2-(methylsulfonyl)ethyl]amino}methyl)-2-furyl]-4-quinazolinamine]
- AUC0-∞ increase by elacridar (BT): 1.9 times
- Cmax increase in IE+L vs control (BT): 1.55 fold and 1.5 fold
- Kp decrease in IL+E group vs control (BT): 25%
- t0.5 longer in the presence of elacridar (BT): 2.5 times
- AUC0-t increased in IE+L (BT, IE+L vs IIL group): 92.6%
- AUC0-∞ increase with elacridar (BT, IE+L vs IIL group): 86.5%
- Cmax increase with elacridar (BT, IE+L vs IIL group): 54.7%
- AUMC0-t (brain tissue, lapatinib 100 mg/kg oral + 5 mg/kg elacridar (IE+L), first AUMC0-t line (r32)): 16,040.19 ± 2981.02 ng × h^2/mL
- AUMC0-t (brain tissue, lapatinib 100 mg/kg oral + 5 mg/kg elacridar (IE+L), second AUMC0-t line (r33)): 57,148.33 ± 29,162.29 ng × h^2/mL
- MRT0-t (brain tissue, lapatinib 100 mg/kg oral alone (IIL)): 5.73 ± 0.06 h
- AUMC0-t (brain tissue, lapatinib 100 mg/kg oral alone (IIL), first AUMC0-t line (r32)): 4792.63 ± 173.92 ng × h^2/mL
- AUMC0-t (brain tissue, lapatinib 100 mg/kg oral alone (IIL), second AUMC0-t line (r33)): 17,455.77 ± 17,542.73 ng × h^2/mL
- BT corr (BT homogenate), S (0.25 h): 33.08 ng/mL
- BT corr (BT homogenate), single rat (0.25 h): 35.46 ng/mL
- BT corr (BT homogenate), single rat (0.25 h, listed as Lapatinib): 35.46 ng/mL
- BT corr (BT homogenate), S (0.5 h): 43.57 ng/mL
- BT corr (BT homogenate), single rat (0.5 h): 41.98 ng/mL
- BT corr (BT homogenate), single rat (0.5 h, listed as Lapatinib): 41.98 ng/mL
- BT corr (BT homogenate), single rat (2 h): 39.78 ng/mL and 102.9 ng/mL
- BT corr (BT homogenate), single rat (2 h, listed as Lapatinib): 39.78 ng/mL and 102.90 ng/mL
- BT corr (BT homogenate), S (3 h): 197.6723 ng/mL
- BT corr (BT homogenate), single rat (3 h): 170.09 ng/mL and 225.26 ng/mL
- BT corr (BT homogenate), single rat (3 h, listed as Lapatinib): 225.26 ng/mL
- BT corr (BT homogenate), S (4 h): 85.05 ng/mL
- BT corr (BT homogenate), single rat (4 h): 91.94 ng/mL
- BT corr (BT homogenate), S (6 h): 85.7722 ng/mL
- BT corr (BT homogenate), single rat (6 h): 84.2 ng/mL
- BT corr (BT homogenate), single rat (6 h, listed as Lapatinib): 84.20 ng/mL
- BT corr (BT homogenate), S (8 h): 85.02 ng/mL
- BT corr (BT homogenate), single rat (12 h): 45.12 ng/mL
- BT corr (BT homogenate), single rat (12 h, listed as Lapatinib): 45.12 ng/mL
- BT corr (BT homogenate), S (24 h): 44.69 ng/mL
- BT corr (BT homogenate), single rat (24 h): 36.68 ng/mL
- BT corr (BT homogenate), single rat (24 h, listed as Lapatinib): 36.68 ng/mL
- BT corr (BT homogenate corrected), single rat (0.25 h): 33.26 ng/mL
- BT corr (BT homogenate corrected), single rat (0.25 h, listed as Lapatinib): 33.26 ng/mL
- BT corr (BT homogenate corrected), single rat (0.5 h): 39.02 ng/mL
- BT corr (BT homogenate corrected), single rat (0.5 h, listed as Lapatinib): 39.02 ng/mL

Source: publication PMC7211195 (Investigational New Drugs, 2019)
